Measurements as given in publication PMC7839254 (FASEB journal : official publication of the Federation of …, 2021).
Substitutions are numbered along the chain they refer to.

Assays:
Experiment in all cases: isothermal titration calorimetry
Type in all cases: binding
[1] = molecular target: T1, human DIPP1 (DIPP1 1-148) (Homo sapiens, UniProt O95989, R41A)
T1 sequence (O95989 1-148 R41A): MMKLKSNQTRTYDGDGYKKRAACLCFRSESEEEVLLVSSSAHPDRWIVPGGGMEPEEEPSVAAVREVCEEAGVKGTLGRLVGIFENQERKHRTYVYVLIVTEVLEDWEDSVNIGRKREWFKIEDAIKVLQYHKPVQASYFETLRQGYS

[2] = molecular target: T2, human DIPP1 (DIPP1 1-148) (Homo sapiens, UniProt O95989, K18A)
T2 sequence (O95989 1-148 K18A): T1 sequence (O95989 1-148 R41A) with K18A, A41R

[3] = molecular target: T3, human DIPP1 (DIPP1 1-148) (Homo sapiens, UniProt O95989, H42A)
T3 sequence (O95989 1-148 H42A): T1 sequence (O95989 1-148 R41A) with A41R, H42A

[4] = molecular target: T4, human DIPP1 (DIPP1 1-148) (Homo sapiens, UniProt O95989)
T4 sequence (O95989 1-148): T1 sequence (O95989 1-148 R41A) with A41R

[5] = molecular target: T5, human DIPP1 (DIPP1 1-148) (Homo sapiens, UniProt O95989, R45A)
T5 sequence (O95989 1-148 R45A): T1 sequence (O95989 1-148 R41A) with A41R, R45A

[6] = molecular target: T6, human DIPP1 (DIPP1 1-148) (Homo sapiens, UniProt O95989, H42A/R45A)
T6 sequence (O95989 1-148 H42A/R45A): T1 sequence (O95989 1-148 R41A) with A41R, H42A, R45A

| Kd [1] [nM] | Kd [2] [nM] | Kd [3] [nM] | Kd [4] [nM] | Kd [5] [nM] | Kd [6] [nM] | SMILES |
| --- | --- | --- | --- | --- | --- | --- |
| 460 ± 50 | 4990 ± 620 | 510 ± 100 | 158 ± 9 | 360 ± 50 | 1060 ± 90 | O=P(O)(O)O[C@@H]1[C@@H](OP(=O)(O)O)[C@H](OP(=O)(O)OP(=O)(O)O)[C@@H](OP(=O)(O)O)[C@H](OP(=O)(O)OP(=O)(O)O)[C@@H]1OP(=O)(O)O [1,5-InsP8, 1,5-bis-diphosphoinositol 2,3,4,6-tetrakisphosphate] |
|  |  |  | 251 ± 31 |  |  | O=P(O)(O)O[C@@H]1[C@@H](OP(=O)(O)OP(=O)(O)O)[C@H](OP(=O)(O)O)[C@@H](OP(=O)(O)O)[C@@H](O)[C@H]1OP(=O)(O)O [5-PP-InsP4, 5-diphosphoinositol 1,3,4,6-tetrakisphosphate] |
